Legend:
[1] = refractive index (Na D-line) (dimensionless); settings: 101.33 kPa, Liquid
[2] = 101 kPa, Liquid
[3] = xn = mol fraction of the nth substance listed; settings: 101 kPa, Liquid
[4] = refractive index (Na D-line) (dimensionless); xn = mol fraction of the nth substance listed; settings: 101 kPa, Liquid

Clc1ccccc1Cl [1,2-dichlorobenzene]
Settings	mass density, 298.15 K [kg/m3]	mass density, 303.15 K [kg/m3]	mass density, 308.15 K [kg/m3]	refractive index, 298.15 K	refractive index, 303.15 K	refractive index, 308.15 K	speed of sound, 298.15 K [m/s]	viscosity, 298.15 K [mPa·s]	viscosity, 303.15 K [mPa·s]	viscosity, 308.15 K [mPa·s]
[1]	–	–	–	1.5499	1.5476	1.545	–	–	–	–
[2]	1300.9	1295.4	1289.7	–	–	–	1280	1.324	1.214	1.105

CC(=O)N(C)C [N,N-dimethylethanamide] + C1COCCO1
Settings	mass density, 298.15 K [kg/m3]	mass density, 303.15 K [kg/m3]	mass density, 308.15 K [kg/m3]	refractive index, 298.15 K	refractive index, 303.15 K	refractive index, 308.15 K	speed of sound, 298.15 K [m/s]	viscosity, 298.15 K [mPa·s]	viscosity, 303.15 K [mPa·s]	viscosity, 308.15 K [mPa·s]
[3], x2 = 0	946.8	942.1	937.5	–	–	–	1458	1.261	1.154	1.047
[3], x2 = 0.1121	954.8	950.1	945.4	–	–	–	1447	1.255	1.149	1.043
[3], x2 = 0.2162	962.4	957.6	952.9	–	–	–	1436	1.248	1.144	1.039
[3], x2 = 0.3203	970	965.2	960.3	–	–	–	1424	1.242	1.138	1.035
[3], x2 = 0.4222	977.9	972.9	968	–	–	–	1413	1.235	1.133	1.031
[3], x2 = 0.5242	985.9	980.9	975.9	–	–	–	1401	1.228	1.128	1.027
[3], x2 = 0.6219	993.9	988.8	983.6	–	–	–	1390	1.222	1.123	1.023
[3], x2 = 0.7198	1002.1	996.8	991.6	–	–	–	1379	1.215	1.117	1.019
[3], x2 = 0.8157	1010.5	1005.3	999.8	–	–	–	1367	1.209	1.105	1.016
[3], x2 = 0.9116	1019.2	1013.7	1008.2	–	–	–	1356	1.202	1.099	1.012
[4], x2 = 0	–	–	–	1.4363	1.4342	1.432	–	–	–	–
[4], x2 = 0.1121	–	–	–	1.4346	1.4324	1.4302	–	–	–	–
[4], x2 = 0.2162	–	–	–	1.4328	1.4306	1.4284	–	–	–	–
[4], x2 = 0.3203	–	–	–	1.431	1.4287	1.4264	–	–	–	–
[4], x2 = 0.4222	–	–	–	1.4293	1.4269	1.4246	–	–	–	–
[4], x2 = 0.5242	–	–	–	1.4275	1.4252	1.4228	–	–	–	–
[4], x2 = 0.6219	–	–	–	1.4259	1.4234	1.421	–	–	–	–
[4], x2 = 0.7198	–	–	–	1.4242	1.4226	1.4191	–	–	–	–
[4], x2 = 0.8157	–	–	–	1.4226	1.421	1.4174	–	–	–	–
[4], x2 = 0.9116	–	–	–	1.421	1.4195	1.4157	–	–	–	–

CCCCO [butan-1-ol] + C1COCCO1
x2 = 0
Settings	mass density, 298.15 K [kg/m3]	mass density, 303.15 K [kg/m3]	mass density, 308.15 K [kg/m3]	refractive index, 298.15 K	refractive index, 303.15 K	refractive index, 308.15 K	speed of sound, 298.15 K [m/s]	viscosity, 298.15 K [mPa·s]	viscosity, 303.15 K [mPa·s]	viscosity, 308.15 K [mPa·s]
[3]	805.8	802	798	–	–	–	1237	2.564	2.245	1.981
[4]	–	–	–	1.3983	1.3955	1.3937	–	–	–	–

CCOC(=O)CC(=O)OCC [diethyl 1,3-propanedioate] + C1COCCO1
Settings	mass density, 298.15 K [kg/m3]	mass density, 303.15 K [kg/m3]	mass density, 308.15 K [kg/m3]	refractive index, 298.15 K	refractive index, 303.15 K	refractive index, 308.15 K	speed of sound, 298.15 K [m/s]	viscosity, 298.15 K [mPa·s]	viscosity, 303.15 K [mPa·s]	viscosity, 308.15 K [mPa·s]
[3], x2 = 0	1049.6	1044.2	1038.8	–	–	–	1304	1.941	1.755	1.602
[3], x2 = 0.1005	1048.1	1042.8	1037.4	–	–	–	1308	1.858	1.698	1.537
[3], x2 = 0.1982	1046.6	1041.2	1035.8	–	–	–	1312	1.777	1.626	1.476
[3], x2 = 0.2959	1044.9	1039.6	1034.2	–	–	–	1316	1.7	1.556	1.413
[3], x2 = 0.3959	1043	1037.7	1032.3	–	–	–	1320	1.619	1.484	1.349
[3], x2 = 0.4959	1041	1035.6	1030.2	–	–	–	1324	1.542	1.415	1.287
[3], x2 = 0.5951	1038.8	1033.4	1028	–	–	–	1328	1.465	1.346	1.227
[3], x2 = 0.6944	1036.4	1030.9	1025.5	–	–	–	1332	1.391	1.28	1.17
[3], x2 = 0.796	1033.7	1028.2	1022.8	–	–	–	1337	1.316	1.214	1.111
[3], x2 = 0.8977	1030.9	1025.4	1019.9	–	–	–	1341	1.249	1.153	1.057
[4], x2 = 0	–	–	–	1.4132	1.4108	1.4085	–	–	–	–
[4], x2 = 0.1005	–	–	–	1.4135	1.4113	1.409	–	–	–	–
[4], x2 = 0.1982	–	–	–	1.4139	1.412	1.4093	–	–	–	–
[4], x2 = 0.2959	–	–	–	1.4143	1.4123	1.4095	–	–	–	–
[4], x2 = 0.3959	–	–	–	1.4147	1.4127	1.4099	–	–	–	–
[4], x2 = 0.4959	–	–	–	1.415	1.4137	1.4103	–	–	–	–
[4], x2 = 0.5951	–	–	–	1.4161	1.4147	1.4113	–	–	–	–
[4], x2 = 0.6944	–	–	–	1.4171	1.4157	1.4122	–	–	–	–
[4], x2 = 0.796	–	–	–	1.4181	1.4167	1.4132	–	–	–	–
[4], x2 = 0.8977	–	–	–	1.4192	1.4231	1.4141	–	–	–	–

CCOC(C)=O [ethyl acetate] + C1COCCO1
x2 = 0
Settings	mass density, 298.15 K [kg/m3]	mass density, 303.15 K [kg/m3]	mass density, 308.15 K [kg/m3]	refractive index, 298.15 K	refractive index, 303.15 K	refractive index, 308.15 K	speed of sound, 298.15 K [m/s]	viscosity, 298.15 K [mPa·s]	viscosity, 303.15 K [mPa·s]	viscosity, 308.15 K [mPa·s]
[3]	894.2	887.9	881.6	–	–	–	1155	0.438	0.414	0.392
[4]	–	–	–	1.3713	1.3673	1.3631	–	–	–	–

ClC=C(Cl)Cl [trichloroethene] + C1COCCO1
Settings	mass density, 298.15 K [kg/m3]	mass density, 303.15 K [kg/m3]	mass density, 308.15 K [kg/m3]	refractive index, 298.15 K	refractive index, 303.15 K	refractive index, 308.15 K	speed of sound, 298.15 K [m/s]	viscosity, 298.15 K [mPa·s]	viscosity, 303.15 K [mPa·s]	viscosity, 308.15 K [mPa·s]
[3], x2 = 0	1455.4	1447	1438.5	–	–	–	1027	0.573	0.547	0.521
[3], x2 = 0.1006	1412.7	1404.6	1396.4	–	–	–	1059	0.635	0.602	0.569
[3], x2 = 0.201	1370.1	1362.2	1354.2	–	–	–	1091	0.697	0.658	0.618
[3], x2 = 0.2983	1327.9	1320.3	1312.8	–	–	–	1122	0.758	0.712	0.665
[3], x2 = 0.3995	1284.4	1277.2	1270	–	–	–	1152	0.821	0.768	0.714
[3], x2 = 0.507	1238.6	1231.5	1224.5	–	–	–	1187	0.888	0.827	0.767
[3], x2 = 0.5993	1199.3	1192.5	1185.7	–	–	–	1215	0.945	0.878	0.812
[3], x2 = 0.6969	1158.5	1152.1	1145.6	–	–	–	1246	1.006	0.933	0.859
[3], x2 = 0.802	1114	1107.7	1101.5	–	–	–	1276	1.072	0.991	0.911
[3], x2 = 0.9003	1072.1	1066.2	1060	–	–	–	1307	1.133	1.046	0.959
[4], x2 = 0	–	–	–	1.476	1.4729	1.4698	–	–	–	–
[4], x2 = 0.1006	–	–	–	1.4704	1.4673	1.4643	–	–	–	–
[4], x2 = 0.201	–	–	–	1.4648	1.4618	1.4587	–	–	–	–
[4], x2 = 0.2983	–	–	–	1.4592	1.4562	1.4532	–	–	–	–
[4], x2 = 0.3995	–	–	–	1.4536	1.4507	1.4477	–	–	–	–
[4], x2 = 0.507	–	–	–	1.4476	1.4446	1.4417	–	–	–	–
[4], x2 = 0.5993	–	–	–	1.4426	1.4396	1.4366	–	–	–	–
[4], x2 = 0.6969	–	–	–	1.4373	1.4344	1.4315	–	–	–	–
[4], x2 = 0.802	–	–	–	1.4314	1.4285	1.4256	–	–	–	–
[4], x2 = 0.9003	–	–	–	1.426	1.4231	1.4202	–	–	–	–

— the NIST ThermoML archive (doi:10.1021/je049609w)
